Data reported in US11331299B2, “Medicinal use of serrulatane diterpenes” (The University of Sydney, priority 2016, dated 2022).

Assays:
[1] = target: T1, PB1(2) (h) bromodomain (Homo sapiens, UniProt Q86U86); test: Epigenetic binding assay, Bromodomain; conditions: read-out: % Inhibition of Control Specific Binding
T1 construct: Bromodomain

[2] = test system: H3K9 me2; test: Cell-based detection methyl modifications; conditions: read-out: % Inhibition of Control Values
[3] = target: T2, HDAC7 (h) (Homo sapiens, UniProt Q8WUI4); test: Epigenetic enzyme assay, Histone deacetylase (HDACs); type: biochemical; conditions: read-out: % Inhibition of Control Values
T2 sequence (Q8WUI4 1-952): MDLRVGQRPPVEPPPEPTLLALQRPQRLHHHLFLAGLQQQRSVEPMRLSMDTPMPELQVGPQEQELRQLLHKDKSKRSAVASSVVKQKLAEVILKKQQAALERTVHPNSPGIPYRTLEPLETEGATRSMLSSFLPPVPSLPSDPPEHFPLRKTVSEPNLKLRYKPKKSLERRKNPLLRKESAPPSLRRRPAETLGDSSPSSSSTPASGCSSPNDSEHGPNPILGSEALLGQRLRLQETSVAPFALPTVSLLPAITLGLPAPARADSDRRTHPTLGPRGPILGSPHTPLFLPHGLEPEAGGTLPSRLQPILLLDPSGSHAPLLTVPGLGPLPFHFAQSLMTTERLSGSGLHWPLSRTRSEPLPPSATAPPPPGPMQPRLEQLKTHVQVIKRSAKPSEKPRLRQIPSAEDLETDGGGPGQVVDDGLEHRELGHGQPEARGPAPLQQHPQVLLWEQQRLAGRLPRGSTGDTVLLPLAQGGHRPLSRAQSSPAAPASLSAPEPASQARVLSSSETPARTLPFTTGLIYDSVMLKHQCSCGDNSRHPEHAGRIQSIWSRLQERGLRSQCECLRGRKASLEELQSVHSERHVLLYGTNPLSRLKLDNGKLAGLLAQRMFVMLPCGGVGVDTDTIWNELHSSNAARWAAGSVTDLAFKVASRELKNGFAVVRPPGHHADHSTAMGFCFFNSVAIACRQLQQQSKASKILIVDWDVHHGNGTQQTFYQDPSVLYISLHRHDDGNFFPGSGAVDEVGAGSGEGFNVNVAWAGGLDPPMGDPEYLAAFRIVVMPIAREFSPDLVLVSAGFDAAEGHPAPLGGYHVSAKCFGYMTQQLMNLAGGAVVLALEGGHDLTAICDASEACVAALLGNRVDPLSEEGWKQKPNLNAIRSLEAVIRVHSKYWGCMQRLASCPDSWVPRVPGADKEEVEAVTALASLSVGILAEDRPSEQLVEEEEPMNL

[4] = target: T3, Sirtuin 7 (h) (Homo sapiens, UniProt Q9NRC8); test: Epigenetic enzyme assay, Sirtuins; type: biochemical; conditions: 10 μM; read-out: % Inhibition of Control Values
T3 sequence (Q9NRC8 1-400): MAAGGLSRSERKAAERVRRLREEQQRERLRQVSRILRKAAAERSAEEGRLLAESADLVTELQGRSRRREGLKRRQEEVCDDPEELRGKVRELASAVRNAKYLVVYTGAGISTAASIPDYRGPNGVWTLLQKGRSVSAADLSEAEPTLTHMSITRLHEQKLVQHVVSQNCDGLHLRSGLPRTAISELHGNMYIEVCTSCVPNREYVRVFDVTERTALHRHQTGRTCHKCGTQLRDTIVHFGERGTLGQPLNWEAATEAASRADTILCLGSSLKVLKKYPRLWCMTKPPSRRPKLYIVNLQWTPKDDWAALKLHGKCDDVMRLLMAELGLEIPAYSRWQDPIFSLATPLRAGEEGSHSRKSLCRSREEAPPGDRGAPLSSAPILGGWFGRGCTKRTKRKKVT

[5] = target: NSD1 (h) (Homo sapiens, UniProt Q96L73); test: Epigenetic enzyme assay, Methyltransferases (MTs); type: biochemical; conditions: for inhibition at 10 µM: read-out: % Inhibition of Control Values
[6] = target: PRDM9 (h) (Homo sapiens, UniProt Q9NQV7); test: Epigenetic enzyme assay, Methyltransferases (MTs); type: biochemical; conditions: for inhibition at 10 µM: read-out: % Inhibition of Control Values
[7] = target: T4, Chemokine CCR2B (Homo sapiens, UniProt P41597); test: Chemokine CCR2B radio ligand binding; conditions: assay year 2015, read-out: % Control Response
T4 construct: expressed in transfected cells; host or cells: CHO-K1 cells
T4 sequence (P41597 1-360 isoform P41597-2): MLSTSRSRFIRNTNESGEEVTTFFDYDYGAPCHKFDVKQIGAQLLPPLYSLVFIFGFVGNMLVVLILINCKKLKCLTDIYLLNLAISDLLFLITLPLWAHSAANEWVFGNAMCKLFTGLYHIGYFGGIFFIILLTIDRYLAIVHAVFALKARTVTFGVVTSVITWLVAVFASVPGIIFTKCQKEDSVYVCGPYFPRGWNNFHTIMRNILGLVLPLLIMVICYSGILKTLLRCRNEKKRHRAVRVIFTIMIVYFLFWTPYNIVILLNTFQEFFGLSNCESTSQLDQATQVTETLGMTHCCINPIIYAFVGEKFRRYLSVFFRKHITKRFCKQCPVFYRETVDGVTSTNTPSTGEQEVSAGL
Description: The in vitro pharmacological studies were conducted by Eurofins PanLab (Taiwan) using the parameters shown in Table 13 with respect to appropriate literature references.

T1 sequence (Q86U86 177-287 limits assumed): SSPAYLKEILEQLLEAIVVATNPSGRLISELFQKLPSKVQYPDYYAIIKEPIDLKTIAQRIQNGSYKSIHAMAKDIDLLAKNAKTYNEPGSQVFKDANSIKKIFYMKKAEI
Chain of PRDM9 (h) (Q9NQV7 whole entry): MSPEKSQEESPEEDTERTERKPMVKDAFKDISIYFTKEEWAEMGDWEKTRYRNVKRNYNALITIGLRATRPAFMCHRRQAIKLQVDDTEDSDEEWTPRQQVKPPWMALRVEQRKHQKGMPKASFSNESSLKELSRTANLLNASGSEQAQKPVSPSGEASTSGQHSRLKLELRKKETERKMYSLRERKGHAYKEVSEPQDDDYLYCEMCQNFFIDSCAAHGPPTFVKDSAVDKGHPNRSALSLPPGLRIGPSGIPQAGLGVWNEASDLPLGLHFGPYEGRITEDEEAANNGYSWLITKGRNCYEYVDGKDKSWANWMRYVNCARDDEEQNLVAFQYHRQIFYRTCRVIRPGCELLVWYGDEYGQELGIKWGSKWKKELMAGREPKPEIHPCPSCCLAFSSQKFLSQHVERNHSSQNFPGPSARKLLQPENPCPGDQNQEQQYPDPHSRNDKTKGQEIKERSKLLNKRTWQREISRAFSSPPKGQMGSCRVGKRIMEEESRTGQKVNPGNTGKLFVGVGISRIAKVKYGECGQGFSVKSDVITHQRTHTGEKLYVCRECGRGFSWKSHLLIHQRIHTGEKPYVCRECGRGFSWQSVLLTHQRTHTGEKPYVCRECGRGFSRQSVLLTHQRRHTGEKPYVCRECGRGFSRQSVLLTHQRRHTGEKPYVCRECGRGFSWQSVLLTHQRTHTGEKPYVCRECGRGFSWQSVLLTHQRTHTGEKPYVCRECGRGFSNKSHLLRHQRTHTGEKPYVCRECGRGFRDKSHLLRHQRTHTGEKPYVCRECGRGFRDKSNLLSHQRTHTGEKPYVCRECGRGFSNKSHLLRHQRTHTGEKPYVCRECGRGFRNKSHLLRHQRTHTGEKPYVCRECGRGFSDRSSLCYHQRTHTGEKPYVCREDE
Chain of NSD1 (h) (Q96L73 whole entry): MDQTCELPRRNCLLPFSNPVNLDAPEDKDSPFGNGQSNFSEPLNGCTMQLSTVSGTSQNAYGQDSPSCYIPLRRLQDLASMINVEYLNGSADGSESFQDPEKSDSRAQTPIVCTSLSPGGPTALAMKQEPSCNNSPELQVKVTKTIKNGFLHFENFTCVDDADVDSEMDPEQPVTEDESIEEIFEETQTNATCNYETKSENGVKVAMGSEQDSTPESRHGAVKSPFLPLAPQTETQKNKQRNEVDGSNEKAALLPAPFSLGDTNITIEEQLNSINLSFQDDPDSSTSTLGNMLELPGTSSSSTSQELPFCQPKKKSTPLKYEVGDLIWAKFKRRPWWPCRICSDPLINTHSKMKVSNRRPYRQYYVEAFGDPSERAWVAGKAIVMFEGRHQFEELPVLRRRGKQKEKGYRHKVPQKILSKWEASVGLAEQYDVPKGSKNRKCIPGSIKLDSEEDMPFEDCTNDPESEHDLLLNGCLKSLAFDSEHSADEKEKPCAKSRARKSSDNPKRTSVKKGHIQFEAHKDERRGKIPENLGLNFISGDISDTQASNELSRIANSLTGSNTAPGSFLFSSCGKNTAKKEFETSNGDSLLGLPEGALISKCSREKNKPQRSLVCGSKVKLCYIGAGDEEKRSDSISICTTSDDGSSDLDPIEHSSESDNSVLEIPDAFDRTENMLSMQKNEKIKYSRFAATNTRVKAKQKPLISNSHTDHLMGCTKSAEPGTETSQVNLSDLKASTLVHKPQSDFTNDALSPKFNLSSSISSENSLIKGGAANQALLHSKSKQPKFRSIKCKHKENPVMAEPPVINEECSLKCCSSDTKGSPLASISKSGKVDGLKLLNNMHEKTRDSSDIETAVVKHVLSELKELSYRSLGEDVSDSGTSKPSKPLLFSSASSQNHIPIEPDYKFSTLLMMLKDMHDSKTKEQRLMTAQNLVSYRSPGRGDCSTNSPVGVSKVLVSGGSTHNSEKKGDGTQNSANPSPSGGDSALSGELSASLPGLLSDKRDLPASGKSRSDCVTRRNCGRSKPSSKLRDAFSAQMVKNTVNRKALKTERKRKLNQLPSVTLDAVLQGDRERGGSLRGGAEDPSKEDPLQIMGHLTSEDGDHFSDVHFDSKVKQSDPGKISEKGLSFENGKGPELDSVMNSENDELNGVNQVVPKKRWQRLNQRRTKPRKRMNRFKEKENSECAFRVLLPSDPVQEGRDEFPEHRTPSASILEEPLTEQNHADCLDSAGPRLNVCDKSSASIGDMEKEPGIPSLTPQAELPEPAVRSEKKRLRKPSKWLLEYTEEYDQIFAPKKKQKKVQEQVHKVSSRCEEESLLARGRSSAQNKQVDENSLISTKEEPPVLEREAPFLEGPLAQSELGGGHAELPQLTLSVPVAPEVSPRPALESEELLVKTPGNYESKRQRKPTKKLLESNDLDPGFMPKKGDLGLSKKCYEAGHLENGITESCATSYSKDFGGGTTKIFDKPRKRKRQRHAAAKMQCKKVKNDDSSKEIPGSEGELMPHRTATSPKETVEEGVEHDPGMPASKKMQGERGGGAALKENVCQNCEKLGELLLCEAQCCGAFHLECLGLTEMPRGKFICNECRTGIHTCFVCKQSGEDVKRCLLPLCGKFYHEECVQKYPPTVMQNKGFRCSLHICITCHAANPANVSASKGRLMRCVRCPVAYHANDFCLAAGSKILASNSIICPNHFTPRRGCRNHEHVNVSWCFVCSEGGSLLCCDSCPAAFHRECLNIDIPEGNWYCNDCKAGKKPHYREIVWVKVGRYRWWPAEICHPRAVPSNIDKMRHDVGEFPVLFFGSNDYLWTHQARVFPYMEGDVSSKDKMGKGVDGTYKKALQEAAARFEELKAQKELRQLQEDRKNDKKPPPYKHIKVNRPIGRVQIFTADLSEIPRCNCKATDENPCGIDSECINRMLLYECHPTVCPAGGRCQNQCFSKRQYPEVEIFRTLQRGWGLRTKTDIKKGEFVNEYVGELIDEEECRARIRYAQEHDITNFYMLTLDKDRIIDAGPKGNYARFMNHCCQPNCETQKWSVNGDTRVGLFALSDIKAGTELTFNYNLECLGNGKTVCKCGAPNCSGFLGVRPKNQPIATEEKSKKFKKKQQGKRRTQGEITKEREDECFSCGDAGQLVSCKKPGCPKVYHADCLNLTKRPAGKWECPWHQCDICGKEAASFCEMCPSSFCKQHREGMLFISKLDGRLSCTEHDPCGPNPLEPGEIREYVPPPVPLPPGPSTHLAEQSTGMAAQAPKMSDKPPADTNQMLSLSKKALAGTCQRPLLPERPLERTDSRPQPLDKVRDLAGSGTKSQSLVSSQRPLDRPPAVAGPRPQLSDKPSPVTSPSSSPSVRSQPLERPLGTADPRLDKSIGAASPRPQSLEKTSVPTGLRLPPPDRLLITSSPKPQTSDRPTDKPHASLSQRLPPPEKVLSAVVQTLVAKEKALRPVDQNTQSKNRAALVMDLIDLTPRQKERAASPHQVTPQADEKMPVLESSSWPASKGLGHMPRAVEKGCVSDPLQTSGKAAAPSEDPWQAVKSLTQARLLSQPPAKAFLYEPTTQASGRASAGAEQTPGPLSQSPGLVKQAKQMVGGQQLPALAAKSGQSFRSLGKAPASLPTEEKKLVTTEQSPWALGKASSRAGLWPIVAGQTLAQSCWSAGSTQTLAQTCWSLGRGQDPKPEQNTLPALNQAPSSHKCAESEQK

SMILES | inhibition at 10 µM [1] [%] | inhibition at 10 µM [2] [%] | inhibition at 10 µM [3] [%] | inhibition at 10 µM [4] [%] | inhibition at 10 µM [5] [%] | IC50 ([5]; Table 11, inhibition/concentration-response curve, read-out: IC50) [µM] | inhibition at 10 µM [6] [%] | remaining activity at 10 µM [7] [%] | IC50 ([6]; read-out: Reference IC50) [µM]
CC(C)=CCC[C@H](CO)[C@@H]1CC[C@@H](C)c2c1cc(C)c(O)c2O [Compound 1, 7,8,18-trihydroxyserrulat-14-ene] | 31 | 1 | -111 | 7 | 69 | 4.9 | 9 | 1 | –
CC(C)=CCC[C@@H]1COc2c(C)cc(O)c3c2[C@H]1CC[C@H]3C [Compound 3, 5,18-epoxy-8-hydroxyserrulat-14-ene] | 13 | 20 | 16 | -8 | -10 | – | 4 | -10 | –
Nc1ncnc2c1ncn2[C@@H]1O[C@H](CSCC[C@H](N)C(=O)O)[C@@H](O)[C@H]1O [SAH] | – | – | – | – | – | – | – | – | 370
CC(C)=CCC[C@@H]1C(O)Oc2c(C)cc(O)c3c2[C@H]1CC[C@H]3C (some centres unmarked) [Compound 2, 5,18-epoxyserrulat-14-en-8,18-diol] | 22 | 11 | -6 | -2 | 29 | – | 5 | -23 | –
